Assay results from patent US8940704B2, “Advantageous salts of μ-opiate receptor peptides” (Cytogel Pharma, LLC, priority 2007, dated 2015).
In brackets after ≈: the same amount, converted by molar mass.

How the values were obtained:
[1] = molecular target: delta receptors (Homo sapiens, UniProt P41143); details: selectivity mu over delta
[2] = Solution stability (HPLC total area normalization); format: physicochemical; details: for Solution stability, 2 weeks at 25° C. / Solution stability, 2 weeks at 40° C. / Solution stability, Time Zero: 90:10 acetonitrile:water with 0.1% TFA; for Solution stability, Time Zero: 0.3 mg/mL
Protocol: Solution Stability. The four final salt candidates were dissolved (in duplicate) in acetonitrile: water: (90:10) with 0.1% TFA at a concentration of 0.3 mg (free base basis) per mL of solvent. The scintillation vials were sealed. One vial of each salt solution was placed in a 40™C over for 2 weeks. Another vial of each salt solution was stored at 25° C. for 2 week. These solutions (and “time zero” solutions) were analyzed for CYT-1010 by HPLC.
(§1) HPLC Analysis. Salt candidates were analyzed by total area normalization (TAN). The samples were dissolved in acetonitrile:water (90:10) with 0.1% TFA at a free base concentration of 0.3 mg/mL.
(§2) • HPLC column: YMC-Pack ODS-A 150 mm, 4.6 mm, 5 micron • Guard Column (optional) None • Column Temp: 25±1° C. • Sample Temp: ambient • Autosampler Flush: 1:1 Water:CAN • Flow Rate: 1.5 mL/min • Injection Volume: 7 μL • UV Detection: 215 nm • Run Time: 32 minutes • Analysis Time: 32 minutes • Mobil Phase: A—0.1% TFA in water • B—0.1% TFA in CAN • Gradient Puym Program*: […]
The solution stability characteristics were evaluated by collecting HPLC data on solutions stored in sealed vials for two weeks at approximately 25 and 40° C. The storage solution consisted of 90:10 acetronitrile:water with 0.1% TFA which is the diluent for the HPLC assay.

[3] = Photostability (ICH option 2 UV, HPLC); format: physicochemical; details: for Photostability, 2 weeks UV Exposed: ICH option 2 UV; for Photostability, 2 weeks UV Exposed / Photostability, 2 weeks Dark Control: about 25° C.; for Photostability, 2 weeks Dark Control: covered with aluminum foil; for decrease in area %, photostability: from time zero to UV exposed
Protocol: Photo Stability. Samples of the four final salt candidates were transferred (in duplicate) to crystallizing dishes and sealed with Saran® wrap. One dish of each salt was also covered with aluminum foil (as the dark controls). Another dish of each salt was not covered with aluminum foil (as the photoexposed samples). The samples were exposed to ICH compliant option 2 UV sources to examine their stability with respect to light at approximately 25° C. Dark controls and time zero samples were also analyzed for comparison. Samples were analyzed for CYT-1010 by HPLC.
as §1, §2
Samples of the four salt candidates were exposed to ICH compliant option 2 UV sources to examine their stability with respect to light at approximately 25° C. Dark controls were also analyzed for comparison.

[4] = Oxidation stability (pure oxygen atmosphere, HPLC); format: physicochemical
Protocol: Oxidation Stability. Samples of the four final salt candidates were exposed to a pure oxygen atmosphere for 2 weeks to examiner their stability with respect to oxidation at 25° C. Samples were analyzed for CYT-1010 by total area normalization for impurity profile by HPLC.
as §1, §2
Samples of the four salts were exposed to a pure oxygen atmosphere to examine their stability with respect to oxidation at 25° C.

[5] = HPLC impurity profile at time zero; format: physicochemical
Protocol: as §1, §2
The scaled-up aspartate, hydrochloride, lactate, and maleate salts together with the free base were analyzed in duplicate by total area normalization (TAN) to determine their impurity profiles. […] The salts were also stressed in solution using heat.
Samples were prepared at a free base concentration of 0.3 mg/mL. The diluent for all sample preparations was 90:10 acetronitrile:water with 0.1% TFA. All solutions were sonicated for at least five minutes prior to analysis. Analysis was done over four days. The impurity profile of the free base, as shown in the table below, was consistent over this time.
Time Zero. Some observations were made concerning the HPLC impurity profile of the free base and salt samples. First, impurities at 0.89, 0.92, 1.02, and 1.03 RRT (relative retention time) are detected in the time zero sample preparations of the free base and all four salts. The largest of these four impurities is the 1.02 RRT impurity which is between 0.4 and 0.5 area % in all five compounds. The maleate salt also has a very large impurity peak at time zero (2.7 area %) at 1.14 RRT. Thus the maleate salt has a relatively low area % purity of 96 area %.

[6] = Solid state stability (HPLC total area normalization); format: physicochemical; details: for Solid state stability, 2 weeks at 25° C. / Solid state stability, 2 weeks at 60° C.: sealed vial
Protocol: Solid State Stability. Power samples of the four final salt candidates were transferred (in duplicate) to scintillation vials and sealed. One vial of each salt was placed in a 60° C. over for 2 week. Another vial of each salt was stored at 25° C. for 2 week. These samples (and “time zero” solutions) were analyzed for CYT-1010 by HPLC.
as §1, §2
The solid state stability characteristics were evaluated by collecting HPLC data on salt samples stored in sealed vials at 25 and 60° C. for two weeks.

[7] = Dynamic vapor sorption (DVS); format: physicochemical; details: 25° C.
Protocol: Dynamic Vapor Sorption (DVS) (Performed by Surface Measurement Systems Ltd., Allentown, Pa.). Samples were run in an automated dynamic vapor sorption analyzer from 0 to 95% relative humidity and back to 0% relative humidity at 25° C. in 5% RH steps. Samples were predried (to constant mass) under a dry nitrogen stream before analysis. Weight change as a function of humidity and time was recorded to construct a moisture isotherm and kinetic plot of water sorption and desorption. Sample masses were generally in the range of 1-5 mg.

[8] = physchem; details: aqueous buffer
[9] = 2 weeks pure oxygen atmosphere, 25° C.
[10] = 2 weeks at 25° C. versus time zero
[11] = 2 weeks at 60° C. as compared to 25° C. data

delta receptors, sequence (P41143 whole entry): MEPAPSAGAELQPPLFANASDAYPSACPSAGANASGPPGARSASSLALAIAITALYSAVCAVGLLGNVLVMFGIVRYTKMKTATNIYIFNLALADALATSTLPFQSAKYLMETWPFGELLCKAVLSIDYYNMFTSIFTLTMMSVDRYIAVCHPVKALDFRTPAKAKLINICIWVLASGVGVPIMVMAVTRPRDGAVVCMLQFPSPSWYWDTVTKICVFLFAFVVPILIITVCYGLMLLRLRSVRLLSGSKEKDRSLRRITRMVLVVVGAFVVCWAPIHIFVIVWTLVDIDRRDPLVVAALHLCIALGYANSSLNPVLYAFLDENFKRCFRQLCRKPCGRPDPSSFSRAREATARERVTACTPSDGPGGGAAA

Molecule: H-Tyr-Pro-Trp-Phe-NH2 [SEQ ID NO:1]
- fold weaker binding to delta receptors than to mu opiate receptor [1]: over 4000 fold

Molecule: Lactate
- Solution stability, 2 weeks at 25° C. ([2]; 2 weeks at 25° C.): 98.5 area %
- Solution stability, 2 weeks at 40° C. ([2]; 2 weeks at 40° C.): 98.5 area %
- Impurity by RRT 0.21 ([2]; solution, 2 weeks at 25° C.): 0.59 area %
- Impurity by RRT 0.89 ([2]; solution, 2 weeks at 25° C.): 0.05 area %
- Impurity by RRT 0.92 ([2]; solution, 2 weeks at 25° C.): 0.11 area %
- Impurity by RRT 0.95 ([2]; solution, 2 weeks at 25° C.): 0.14 area %
- Impurity by RRT 1.02 ([2]; solution, 2 weeks at 25° C.): 0.49 area %
- Impurity by RRT 1.03 ([2]; solution, 2 weeks at 25° C.): 0.15 area %
- Impurity by RRT 0.21 ([2]; solution, 2 weeks at 40° C.): 0.62 area %
- Impurity by RRT 0.89 ([2]; solution, 2 weeks at 40° C.): 0.04 area %
- Impurity by RRT 0.92 ([2]; solution, 2 weeks at 40° C.): 0.04 area %
- Impurity by RRT 0.95 ([2]; solution, 2 weeks at 40° C.): 0.14 area %
- Impurity by RRT 0.98 ([2]; solution, 2 weeks at 40° C.): <0.03 area %
- Impurity by RRT 1.02 ([2]; solution, 2 weeks at 40° C.): 0.50 area %
- Impurity by RRT 1.03 ([2]; solution, 2 weeks at 40° C.): 0.16 area %
- Impurity by RRT 1.32 ([2]; solution, 2 weeks at 40° C.): <0.03 area %
- Impurity by RRT 2.39 ([2]; solution, 2 weeks at 40° C.): <0.03 area %
- Solution stability, Time Zero [2]: 99.2 area %
- Photostability, 2 weeks UV Exposed [3]: 98.6 area %
- Photostability, 2 weeks Dark Control [3]: 99.0 area %
- Photostability, Time Zero [3]: 99.2 area %
- decrease in area %, photostability [3]: 0.6 area %
- Impurity by RRT 0.87 [4, 9]: <0.03 area %
- Impurity by RRT 0.89 [4, 9]: 0.24 area %
- Impurity by RRT 0.92 [4, 9]: 0.20 area %
- Impurity by RRT 0.95 [4, 9]: 0.13 area %
- Impurity by RRT 1.02 [4, 9]: 0.49 area %
- Impurity by RRT 1.03 [4, 9]: 0.15 area %
- Impurity by RRT 1.18 [4, 9]: <0.03 area %
- Oxidation stability, 2 weeks Oxidation [4, 9]: 98.8 area %
- Oxidation stability, Time Zero [4]: 99.2 area %
- Impurity by RRT 0.89 [5]: 0.04 area %
- Impurity by RRT 0.92 [5]: 0.08 area %
- Impurity by RRT 0.95 [5]: 0.10 area %
- Impurity by RRT 1.02 [5]: 0.49 area %
- Impurity by RRT 1.03 [5]: 0.13 area %
- Impurity by RRT 1.18 [5]: <0.03 area %
- decrease in area %, solid state stability [6, 10]: 0.2 area %
- decrease in area %, solid state stability [6, 11]: 0.5 area %
- Solid state stability, Time Zero [6]: 99.2 area %
- Solid state stability, 2 weeks at 25° C. [6]: 99.0 area %
- Solid state stability, 2 weeks at 60° C. [6]: 98.5 area %
- DVS water uptake ([7]; 0-70% RH range): 1-3 wt %
- DVS water uptake ([7]; by 90% RH): up to 6 wt %

Molecule: NC(Cc1ccc(O)cc1)C(=O)NC1CCCCNC(=O)C(Cc2ccccc2)NC(=O)C(Cc2c[nH]c3ccccc23)NC1=O [Free Base, H-Tyr-c-[D-Lys-Trp-Phe]]
- Solution stability, 2 weeks at 25° C. ([2]; 2 weeks at 25° C.): 98.6 area %
- Solution stability, 2 weeks at 40° C. ([2]; 2 weeks at 40° C.): 98.7 area %
- Impurity by RRT 0.21 ([2]; solution, 2 weeks at 25° C.): 0.50 area %
- Impurity by RRT 0.89 ([2]; solution, 2 weeks at 25° C.): 0.06 area %
- Impurity by RRT 0.92 ([2]; solution, 2 weeks at 25° C.): 0.04 area %
- Impurity by RRT 0.95 ([2]; solution, 2 weeks at 25° C.): 0.06 area %
- Impurity by RRT 1.02 ([2]; solution, 2 weeks at 25° C.): 0.53 area %
- Impurity by RRT 1.03 ([2]; solution, 2 weeks at 25° C.): 0.18 area %
- Impurity by RRT 0.21 ([2]; solution, 2 weeks at 40° C.): 0.50 area %
- Impurity by RRT 0.89 ([2]; solution, 2 weeks at 40° C.): 0.04 area %
- Impurity by RRT 0.95 ([2]; solution, 2 weeks at 40° C.): 0.03 area %
- Impurity by RRT 1.02 ([2]; solution, 2 weeks at 40° C.): 0.51 area %
- Impurity by RRT 1.03 ([2]; solution, 2 weeks at 40° C.): 0.18 area %
- Solution stability, Time Zero [2]: 99.2 area %
- Photostability, 2 weeks UV Exposed [3]: 98.9 area %
- Photostability, 2 weeks Dark Control [3]: 99.0 area %
- Photostability, Time Zero [3]: 99.2 area %
- decrease in area %, photostability [3]: 0.3 area %
- solubility ([8]; pH 7): < 3 µg/mL
- solubility ([8]; pH 10): 6 µg/mL (≈ 9.6 µM)
- Impurity by RRT 0.87 [4, 9]: 0.04 area %
- Impurity by RRT 0.89 [4, 9]: 0.30 area %
- Impurity by RRT 0.92 [4, 9]: 0.20 area %
- Impurity by RRT 0.95 [4, 9]: 0.04 area %
- Impurity by RRT 1.02 [4, 9]: 0.53 area %
- Impurity by RRT 1.03 [4, 9]: 0.20 area %
- Oxidation stability, 2 weeks Oxidation [4, 9]: 97.7 area %
- decrease in area %, oxidative stability ([4]; 2 weeks pure oxygen versus time zero): 1.5 area %
- Oxidation stability, Time Zero [4]: 99.2 area %
- Impurity by RRT 0.89 [5]: 0.09 area %
- Impurity by RRT 0.92 [5]: 0.05 area %
- Impurity by RRT 1.02 [5]: 0.53 area %
- Impurity by RRT 1.03 [5]: 0.16 area %
- decrease in area %, solid state stability [6, 10]: 0.4 area %
- decrease in area %, solid state stability [6, 11]: decreased slightly
- Solid state stability, Time Zero [6]: 99.2 area %
- Solid state stability, 2 weeks at 25° C. [6]: 98.8 area %
- Solid state stability, 2 weeks at 60° C. [6]: 98.7 area %
- changes in HPLC-TAN values upon exposure to heat, light, or oxygen ([6]; summary of Tables 6-9): did not exhibit significant changes
- DVS water uptake ([7]; by 90% RH): up to 1.7 wt %
